Source: PubChem BioAssay AID248 (DTP/NCI, 2004)
Values joined by “and” are separate entries in the source; they are usually repeats but may differ in a detail not shown here. Identical values can stand only once. Toxic doses and inconclusive results are not listed. Rule as the data show it: active = T/C of 150% or more; inactive = T/C below 125%.

Tested on: L1210 leukemia ip in BDF1 mice, survival T/C
Test: NCI In Vivo Anticancer Drug Screen. Data for tumor model L1210 Leukemia (intraperitoneal) in B6D2F1 (BDF1) mice
Conditions: endpoint: mean survival time, higher = longer survival
In short: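 Ratio derived from survival: compound-dosed mice over vehicle-dosed mice, all bearing a transplantable tumor.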

[1] = dose: 100.0 mg/kg/injection, schedule: Q01DX001 (ip), vehicle: saline
[2] = dose: 200.0 mg/kg/injection, schedule: Q01DX001 (ip), vehicle: saline
[3] = dose: 400.0 mg/kg/injection, schedule: Q01DX001 (ip), vehicle: saline
[4] = dose: 100.0 mg/kg/injection, schedule: Q04DX003 (ip), vehicle: Klucel (hydroxypropylcellulose) (HPC)
[5] = dose: 200.0 mg/kg/injection, schedule: Q01DX009 (ip), vehicle: Klucel (hydroxypropylcellulose) (HPC)
[6] = dose: 200.0 mg/kg/injection, schedule: Q04DX003 (ip), vehicle: Klucel (hydroxypropylcellulose) (HPC)
[7] = dose: 400.0 mg/kg/injection, schedule: Q04DX003 (ip), vehicle: Klucel (hydroxypropylcellulose) (HPC)
[8] = dose: 6.0 mg/kg/injection, schedule: Q01DX009 (ip), vehicle: Klucel (hydroxypropylcellulose) (HPC)
[9] = dose: 12.0 mg/kg/injection, schedule: Q01DX009 (ip), vehicle: Klucel (hydroxypropylcellulose) (HPC)
[10] = dose: 25.0 mg/kg/injection, schedule: Q01DX009 (ip), vehicle: Klucel (hydroxypropylcellulose) (HPC)
[11] = dose: 25.0 mg/kg/injection, schedule: Q04DX003 (ip), vehicle: Klucel (hydroxypropylcellulose) (HPC)
[12] = dose: 50.0 mg/kg/injection, schedule: Q04DX003 (ip), vehicle: Klucel (hydroxypropylcellulose) (HPC)
[13] = dose: 100.0 mg/kg/injection, schedule: Q04DX003 (ip), vehicle: saline with Tween-80
[14] = dose: 200.0 mg/kg/injection, schedule: Q01DX009 (ip), vehicle: saline with Tween-80
[15] = dose: 200.0 mg/kg/injection, schedule: Q04DX003 (ip), vehicle: saline with Tween-80
[16] = dose: 400.0 mg/kg/injection, schedule: Q01DX009 (ip), vehicle: saline with Tween-80
[17] = dose: 400.0 mg/kg/injection, schedule: Q04DX003 (ip), vehicle: saline with Tween-80
[18] = dose: 100.0 mg/kg/injection, schedule: Q04DX003 (ip), vehicle: saline
[19] = dose: 100.0 mg/kg/injection, schedule: Q01DX009 (ip), vehicle: saline with Tween-80
[20] = dose: 100.0 mg/kg/injection, schedule: Q04DX002 (ip), vehicle: Klucel (hydroxypropylcellulose) (HPC)
[21] = dose: 200.0 mg/kg/injection, schedule: Q04DX002 (ip), vehicle: Klucel (hydroxypropylcellulose) (HPC)
[22] = dose: 12.5 mg/kg/injection, schedule: Q01DX009 (ip), vehicle: Klucel (hydroxypropylcellulose) (HPC)
[23] = dose: 50.0 mg/kg/injection, schedule: Q01DX009 (ip), vehicle: Klucel (hydroxypropylcellulose) (HPC)
[24] = dose: 100.0 mg/kg/injection, schedule: Q01DX001 (ip), vehicle: saline with Tween-80
[25] = dose: 200.0 mg/kg/injection, schedule: Q01DX001 (ip), vehicle: saline with Tween-80

Measured: T/C

Nc1nc(=O)n(C2OC(CO)C(O)C2O)c2ccccc12 (configuration not stated)
inactive: [1] 101 % of control | [2] 101 % of control | [3] 101 % of control

CC1CCCN(c2ccc([N+](=O)[O-])cc2[N+](=O)[O-])C1 (configuration not stated)
inactive: dose: 100.0 mg/kg/injection, schedule: Q01DX009 (ip), vehicle: Klucel (hydroxypropylcellulose) (HPC) 105 % of control | [4] 99 % of control | [5] 96 % of control | [6] 92 % of control | dose: 400.0 mg/kg/injection, schedule: Q01DX009 (ip), vehicle: Klucel (hydroxypropylcellulose) (HPC) 99 % of control | [7] 97 % of control

CC(=O)[O][Hg][c]1cc2c(cc1O)Cc1cc([N+](=O)[O-])ccc1-2
inactive: dose: 12.5 mg/kg/injection, schedule: Q01DX001 (ip), vehicle: carboxymethylcellulose (CMC) 105 % of control | dose: 25.0 mg/kg/injection, schedule: Q01DX001 (ip), vehicle: carboxymethylcellulose (CMC) 100 % of control | dose: 50.0 mg/kg/injection, schedule: Q01DX001 (ip), vehicle: carboxymethylcellulose (CMC) 97 % of control

COc1cc2c(cc1OC)C(C#N)C2 (configuration not stated)
inactive: [8] 104 % of control | [9] 92 % of control | dose: 12.0 mg/kg/injection, schedule: Q04DX003 (ip), vehicle: Klucel (hydroxypropylcellulose) (HPC) 100 % of control and 105 % of control | [10] 100 % of control | [11] 100 % of control | [12] 97 % of control and 92 % of control

CCOC(=O)C1C(=O)NC(=O)CC1C (configuration not stated)
inactive: [13] 98 % of control | [14] 100 % of control | [15] 96 % of control | [16] 101 % of control | [17] 104 % of control

CCOc1nc(OCC)c2[nH]cnc2n1
inactive: [1] 101 % of control | [2] 96 % of control | [3] 102 % of control

CC(NC(=O)OCc1ccccc1)C(=O)NC(CC(=O)O)C(=O)O (configuration not stated)
inactive: dose: 25.0 mg/kg/injection, schedule: Q01DX009 (ip), vehicle: saline 96 % of control | dose: 25.0 mg/kg/injection, schedule: Q04DX003 (ip), vehicle: saline 93 % of control | dose: 50.0 mg/kg/injection, schedule: Q01DX009 (ip), vehicle: saline 98 % of control | dose: 50.0 mg/kg/injection, schedule: Q04DX003 (ip), vehicle: saline 98 % of control | dose: 100.0 mg/kg/injection, schedule: Q01DX009 (ip), vehicle: saline 93 % of control | [18] 97 % of control

CCNC(=O)NC(CSCSC)C(=O)OC (configuration not stated)
inactive: [19] 98 % of control | [13] 104 % of control | [14] 105 % of control | [15] 105 % of control | [16] 96 % of control | [17] 102 % of control

Cc1ccc(NCC(O)CN2CCCC2)cc1 (configuration not stated)
inactive: [8] 94 % of control | [9] 92 % of control | dose: 12.5 mg/kg/injection, schedule: Q01DX001 (ip), vehicle: Klucel (hydroxypropylcellulose) (HPC) 93 % of control | dose: 12.5 mg/kg/injection, schedule: Q04DX003 (ip), vehicle: Klucel (hydroxypropylcellulose) (HPC) 104 % of control | dose: 25.0 mg/kg/injection, schedule: Q01DX001 (ip), vehicle: Klucel (hydroxypropylcellulose) (HPC) 93 % of control | [10] 96 % of control and 100 % of control | [11] 96 % of control | dose: 50.0 mg/kg/injection, schedule: Q01DX001 (ip), vehicle: Klucel (hydroxypropylcellulose) (HPC) 93 % of control

CC(=O)OC1CCCC2=C(C)C(=O)CCC21C (configuration not stated)
inactive: dose: 50.0 mg/kg/injection, schedule: Q01DX009 (ip), vehicle: saline with Tween-80 100 % of control | [19] 118 % of control | [14] 94 % of control

Clc1nc(Br)[nH]c1Cl
inactive: dose: 1.56 mg/kg/injection, schedule: Q01DX009 (ip), vehicle: Klucel (hydroxypropylcellulose) (HPC) 100 % of control | dose: 3.12 mg/kg/injection, schedule: Q01DX009 (ip), vehicle: Klucel (hydroxypropylcellulose) (HPC) 107 % of control | dose: 6.25 mg/kg/injection, schedule: Q01DX009 (ip), vehicle: Klucel (hydroxypropylcellulose) (HPC) 100 % of control and 113 % of control

Cc1cc(C)c(CCl)c(C)c1CCl
inactive: [1] 119 % of control

NNC(=O)CNc1cccc(Cl)c1
inactive: [20] 101 % of control | [21] 108 % of control

COc1cc(N(CCl)CCl)ccc1NC(=O)c1ccccc1
inactive: [4] 111 % of control | [6] 105 % of control | [7] 111 % of control

COc1cccc(/C=C/[N+](=O)[O-])c1
inactive: [22] 95 % of control | [10] 98 % of control | [11] 89 % of control | dose: 45.0 mg/kg/injection, schedule: Q04DX003 (ip), vehicle: saline with Tween-80 103 % of control | [23] 97 % of control | [12] 96 % of control | dose: 90.0 mg/kg/injection, schedule: Q04DX003 (ip), vehicle: saline with Tween-80 106 % of control | dose: 180.0 mg/kg/injection, schedule: Q04DX003 (ip), vehicle: saline with Tween-80 90 % of control

COc1ccc(OC)c(/C=C/c2ccc(NC(=O)Nc3ccccc3Cl)cc2)c1
inactive: [22] 93 % of control | [10] 89 % of control | [23] 91 % of control | [20] 88 % of control | [5] 93 % of control and 86 % of control | [21] 88 % of control | dose: 300.0 mg/kg/injection, schedule: Q01DX009 (ip), vehicle: Klucel (hydroxypropylcellulose) (HPC) 106 % of control and 89 % of control

c1ccc(-c2c(-c3ccc4c(c3)OCO4)c(-c3ccc4c(c3)OCO4)c(-c3ccccc3)c3ccccc23)cc1
inactive: [24] 92 % of control | [25] 100 % of control

Nc1nc(=S)c2nc(CNc3ccc(C(=O)NC(CCC(=O)O)C(=O)O)cc3)nnc2[nH]1 (configuration not stated)
inactive: [24] 103 % of control | [25] 105 % of control

O=C(O)CSc1ccc(NC(=O)Nc2ccccc2F)cc1
inactive: [1] 90 % of control | [19] 92 % of control | [18] 100 % of control | [2] 88 % of control | [14] 89 % of control | dose: 200.0 mg/kg/injection, schedule: Q04DX003 (ip), vehicle: saline 94 % of control | [3] 92 % of control | [16] 86 % of control | dose: 400.0 mg/kg/injection, schedule: Q04DX003 (ip), vehicle: saline 92 % of control

Nc1nc2nc(N=Nc3ccc(S(=O)(=O)O)cc3)[nH]c2c(=O)[nH]1
inactive: [4] 93 % of control | [6] 93 % of control | [7] 93 % of control

O=C(Nc1cccc(NC(=O)c2ccccc2)c1)c1ccccc1
inactive: [4] 92 % of control | [6] 95 % of control | [7] 90 % of control
